Experimental data: paper PMC5786306, “An AKAP-Lbc-RhoA interaction inhibitor promotes the translocation of aquaporin-2 to the plasma membrane of renal collecting duct principal cells” (PLoS ONE, 2018)

Assays:
His6-GST fusion protein = His6-GST fusion protein (Schistosoma japonicum, UniProt P08515); assay: HTRF control assay with His6-GST fusion protein; format: binding; details: control for interference with tags or antibodies
Experimental: The assay was essentially carried out as described. Scaff10 derivatives were added to His6-AKAP-Lbc/DHPH protein (250 nM final concentration) in HTRF buffer (PBS; 4 mM MgCl2; 0.05% Tween 20) in 384 well plates (Proxiplate-384 Plus, white, #6008289; Perkin Elmer LAS, Rodgau, Germany). Concentrations of Scaff10 derivatives ranged between 1.56–200 μM (2% DMSO final concentration); HTRF buffer with 2% DMSO served as a control. GST-RhoA (30 nM final concentration) in HTRF buffer and anti-GST antibody coupled to terbium (donor) and anti-His6-tag antibody coupled to XL665 (acceptor) were added to all wells (final antibody concentration: 2 μg/ml). After 1 h incubation at room temperature in the dark, FRET signals were recorded at 620 and 665 nm using a Genios Pro plate reader (Tecan Austria GmbH, Grödig, AT) and the ratios of […] to 620 nm were calculated. Wells containing no compound were set to 100% interaction of AKAP-Lbc/DHPH with RhoA, wells containing GST-RhoA only (without His6-AKAP-Lbc/DHPH) were set to 0% interaction. To exclude any interference of the tags and/or antibodies with Scaff10 derivatives, a His6-GST fusion protein replaced the two tagged proteins in a control assay. Wells containing His6-GST fusion protein were set to 100% interaction of His6-GST, wells containing no fusion protein were set to 0% interaction.

[1] = biological target: T1, GST-RhoA (F25N), GDP- or GTPγS-bound (Homo sapiens, UniProt P61586, F25N); assay: Isothermal titration calorimetry (ITC) with GST-RhoA; format: binding
T1 construct: made in house
Experimental: ITC measurements were essentially carried out as previously described. The stabilizing RhoA mutant F25N [41] was purified as a GST-RhoA fusion in its GDP-bound form (final gel filtration purification step in 20 mM HEPES, pH 7.5, 150 mM NaCl, 2 mM DTT, 50 μM GDP). In order to exchange GDP against GTPγS, GST-RhoA loaded with GDP was incubated for 20 min in ITC nucleotide exchange buffer (50 mM HEPES, pH 7.5, 20 mM EDTA) at 25°C followed by three dilution and concentration steps in Amicon tubes (10,000 MWCO) using ITC dialysis buffer (50 mM HEPES, pH 7.4, 150 mM NaCl, 5 mM MgCl2, 2 mM β-mercaptoethanol). The nucleotide-loading state was confirmed by HPLC. All proteins used in ITC measurements were dialyzed overnight against ITC dialysis buffer. Protein concentrations were determined with NanoDrop ND-1000. GDP or GTPγS (final concentration 2 mM) and DMSO (2%) were added to the proteins prior to the ITC measurements. Scaff10-8 was dissolved in the same buffer (including 2% DMSO and 2 mM GDP or GTPγS). ITC measurements were performed on a VP-ITC (GE Healthcare, München, DE) at 15°C. Titrations were conducted using 14.8 μM Scaff10-8 in the cell and 235 μM (GST control), 222 μM (GST-RhoA, GDP-bound) or 210 μM (GST-RhoA, GTPγS-bound) in the syringe. The cell was stirred at 351 rpm and a total of 27 x 10 μl injections were added to the cell, separated by 240 s of equilibration. The data were fitted using the Microcal Origin software (version 7.0) and a one-site binding model. We consistently observed a binding number close to N = 0.5 (RhoA/Scaff10-8). This observation may be due to the binding of two molecules of Scaff10-8 per one molecule of GST-RhoA for both the GDP-bound and GTPγS-bound form of GST-RhoA, or due to some inaccuracy in the determination of protein or compound concentrations. The data were thus fitted using a fixed binding number of N = 0.5.

[2] = system: Rac1 activity in IMCD cells; assay: PAK-1-PBD pull down, Rac1; format: cell-based, rat; details: 30 μM, 1 h
Experimental: The (p21) binding domain (PBD) of p21 activated kinase 1 protein (PAK-1) spans amino acids 67–150 of PAK-1 and binds specifically to the GTP-bound Rac-1 and Cdc42. The PBD was prepared as described and used for selective precipitation of the activated GTPases from IMCD cells. The PBD was expressed as a GST-fusion protein in DH5α E-coli cells, the cells were lysed using a French press, and the fusion protein was purified with Glutathione Sepharose 4 Fast Flow GST-tagged protein purification resin kit according to the manufacturer’s instructions (GE Healthcare; #17-5132-01). The PAK-1-PBD pull down was carried out with 400–500 μg protein from IMCD cell lysates. Proteins were eluted from the beads by boiling with Laemmli sample buffer, and analyzed by Western blotting. The membranes were first probed for Cdc42, and the GTP-bound active fraction of the protein was related to total Cdc42, and to the loading control GAPDH. The membranes were re-probed for Rac-1 accordingly to determine the active GTP-bound Rac-1 fraction.
Fig 10 Scaff10-8 inhibits activation of RhoA in primary IMCD cells. IMCD cells were incubated with Scaff10-8 (30 μM, 1 h). DMSO (1%), the solvent of Scaff10-8, served as a control. […] Signals were semiquantitatively analyzed by densitometry. […] Statistically significant differences were determined using one-way ANOVA with posthoc Bonferroni. […]

T1 sequence (P61586 whole entry F25N): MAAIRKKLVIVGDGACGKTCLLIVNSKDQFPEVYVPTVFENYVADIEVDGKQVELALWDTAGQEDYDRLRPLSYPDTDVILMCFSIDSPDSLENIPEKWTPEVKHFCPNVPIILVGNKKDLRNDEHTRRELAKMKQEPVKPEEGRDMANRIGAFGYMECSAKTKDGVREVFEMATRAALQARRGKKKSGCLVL
Chain of His6-GST fusion protein (P08515 whole entry, the tested form may be a part): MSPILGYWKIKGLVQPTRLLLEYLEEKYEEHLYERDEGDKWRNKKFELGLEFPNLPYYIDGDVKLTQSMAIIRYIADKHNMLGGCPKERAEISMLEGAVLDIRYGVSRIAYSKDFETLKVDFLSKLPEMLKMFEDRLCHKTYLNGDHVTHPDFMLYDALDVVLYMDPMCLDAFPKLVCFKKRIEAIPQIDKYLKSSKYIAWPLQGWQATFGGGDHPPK

COc1ccc(-c2coc3cc4oc(=O)c(CCC(=O)O)c(C)c4cc23)cc1 [Scaff10-8, 3-[3-(4-Methoxyphenyl)-5-methyl-7-oxo-furo[3,2-g]chromen-6-yl] propanoic acid]
interaction with His-GST fusion protein (His6-GST fusion protein): does not interact
KD for GST-RhoA loaded with GDP ([1]; 15°C, 2 mM GDP, fixed N = 0.5): 20 ± 1 µM
KD for GST-RhoA loaded with GTPγS ([1]; 15°C, 2 mM GTPγS, fixed N = 0.5): 38 ± 4 µM
binding number N (RhoA/Scaff10-8) ([1]; GDP- and GTPγS-bound forms): ~0.5
activity of Rac1 [2]: did not influence activities
